Measured values as given in patent US8367666B2 (priority 2004, dated 2013).
Where two headings read alike, the source gives them in different places.

Experiments:
[1] = system: scratching action induced by Compound 48/80; test: Anti-pruritic activity test by application (Compound 48/80 scratching); format: in vivo, mouse (Crj:CD-1 (ICR)); conditions: Mus musculus, topical, read-out: Itching inhibition ratio % (Concentration %)
Experimental: 1) Preparation of the compound and the reagent: The compound being tested was dissolved in acetone (SIGMA). Compound 48/80 (SIGMA) was dissolved in physiological saline (m by Otsuka Pharmaceutical Co., Ltd.) so as to be 60 μg/mL.
2) Animals: Female Crj: CD-1 (ICR) mice of 6 to 10 age in week (Japan Charles Liver) were used as laboratory animals. The animals were fed in the barrier breeding room where […] in room temperature, 30 to 70% in humidity, and the light and shade condition existed every 12 hours and feed (CE-2: Japan Crea) and the drinking water were freely taken. The hair of dorsa (from the cervical region of the back to the center of the back) of the animals were cut with a hair clipper two days or more before the anti-pruritic activity is evaluated, those with no wound, rubefaction, and thickening of the skin on the dehaired part were chosen and supplied to the experiment on the day of the evaluation. 3) Evaluation procedures: The acetone solution of the compound being tested was applied by 50 μL on the dehaired parts of the mice with a pipeter. On the mice of the control group, 50 μL of acetone was applied. The 15 minutes later, 50 μL (corresponding to 3 μg) of Compound 48/80 solution was injected intradermally in the compound applied parts with the use of a injector (Terumo Corporation), the mice were individually put in five observation cages made of acrylate resin at once, and the scratching action (action of scratching the injection part by the hind leg) frequency during 30 minutes was measured. The evaluation was carried out in one group of 5 to 7 mice. 4) Data processing: The experiment results were shown by the mean values. The test of the significant difference of the compound applying group to the control group was conducted with Welch's t-test, and p<0.05 was assumed to be significant.

CB1 receptor [2] = target: T1, CB1 receptor (Homo sapiens, UniProt P21554); test: Human cannabinoid receptor bonding inhibition test ([3H]CP55940), CB1; format: binding; design: expressed in transfected cells; membrane fraction
CB2 receptor [3] = target: T2, CB2 receptor (Homo sapiens, UniProt P34972); test: Human cannabinoid receptor bonding inhibition test ([3H]CP55940), CB2; format: binding; design: expressed in transfected cells; membrane fraction
CB1 receptor [4] = target: T1, CB1 receptor; test: cAMP formation inhibition experiment through a cannabinoid receptor (forskolin stimulation), CB1; format: cell-based; design: expressed in transfected cells; host or cells: CHO cells; conditions: read-out: Agonist activity (nM) CB1
Experimental: A compound being tested was added in the CHO cell which had mad human CB1 or CB2 receptor reveal and incubated for 15 minutes, and then forskolin (the final concentration 4 μM, and manufactured by SIGMA Corp.) was added and the mixture was incubated for 20 minutes. After the reaction had been stopped by adding 1M hydrochloric acid, the amount of cAMP in the supernatant was measured with the use of Cyclic AMP kit (made by the CIS Diagnostic Corp.).

CB2 receptor [5] = target: T2, CB2 receptor; test: cAMP formation inhibition experiment through a cannabinoid receptor (forskolin stimulation), CB2; format: cell-based; design: expressed in transfected cells; host or cells: CHO cells
[6] = [3H]CP55940 0.5 nM, membrane preparation of CHO cells expressing CB1, Ki calculated from IC50, read-out: Binding activity (nM) CB1

T2 sequence (P34972 whole entry): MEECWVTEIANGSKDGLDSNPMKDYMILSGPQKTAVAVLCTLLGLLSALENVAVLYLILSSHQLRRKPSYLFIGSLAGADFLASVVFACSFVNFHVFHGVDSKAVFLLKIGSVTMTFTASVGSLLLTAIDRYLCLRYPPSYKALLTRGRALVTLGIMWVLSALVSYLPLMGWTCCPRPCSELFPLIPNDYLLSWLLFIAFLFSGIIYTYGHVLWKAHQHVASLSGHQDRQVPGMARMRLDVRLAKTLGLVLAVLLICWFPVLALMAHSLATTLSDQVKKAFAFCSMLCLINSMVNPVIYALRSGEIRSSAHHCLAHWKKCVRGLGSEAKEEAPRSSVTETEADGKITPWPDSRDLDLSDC
T1 sequence (P21554 whole entry): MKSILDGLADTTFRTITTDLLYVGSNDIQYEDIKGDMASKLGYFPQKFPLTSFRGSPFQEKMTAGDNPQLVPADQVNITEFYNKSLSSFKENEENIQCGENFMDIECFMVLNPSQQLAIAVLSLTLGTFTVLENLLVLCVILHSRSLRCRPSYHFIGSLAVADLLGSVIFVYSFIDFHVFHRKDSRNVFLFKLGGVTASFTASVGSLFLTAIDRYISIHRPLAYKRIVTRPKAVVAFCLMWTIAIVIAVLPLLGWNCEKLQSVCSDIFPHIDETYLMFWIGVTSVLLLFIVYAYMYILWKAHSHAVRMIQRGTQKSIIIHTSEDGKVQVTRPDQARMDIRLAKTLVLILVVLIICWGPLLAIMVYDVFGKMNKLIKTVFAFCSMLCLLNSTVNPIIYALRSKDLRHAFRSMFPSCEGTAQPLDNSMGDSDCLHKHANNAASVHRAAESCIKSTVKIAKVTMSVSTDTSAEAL

For CCCCNC(=O)C1CCCN(C(=O)C(C)(C)NC(=O)c2cc3c(n(CC4CCCCC4)c2=O)CCCCCC3)C1 (stereo not shown) [Compound I-608], the inhibition in vivo at 3 % [1] was 75%, the Ki (CB1 receptor [2]) was 527 nM and the Ki (CB2 receptor [3]) was 11 nM. For the same compound, the IC50 (CB1 receptor [4]) was > 2000 nM and the IC50 (CB2 receptor [5]) was 3.5 nM.

Compound CNC(=O)CNC(=O)C(C)(C)NC(=O)c1cc2c(n(CC3CCCCC3)c1=O)CCCCCC2 [Compound I-590] has an inhibition in vivo at 3 % [1] of 75%, a Ki (CB1 receptor [2]) of 66 nM and a Ki (CB2 receptor [3]) of 16 nM. The IC50 (CB1 receptor [4]) was 51 nM and the IC50 (CB2 receptor [5]) was 2.4 nM.

For O=C(N[C@H](C(=O)O)c1ccccc1)c1cc2c(n(CC3CCCCC3)c1=O)CCCCCC2 [Compound I-402], the inhibition in vivo at 3 % [1] was 59%, the Ki (CB1 receptor [2]; [6]) was 34 nM and the Ki (CB2 receptor [3]) was < 2 nM. It also gave an IC50 (CB2 receptor [5]; inhibition of forskolin (4 μM)-stimulated cAMP formation, CHO cells expressing human CB2, read-out: Agonist activity (nM) CB2) of 5.7 nM.

CC(C)(NC(=O)c1cc2c(n(CC3CCCCC3)c1=O)CCCCCC2)C(=O)N1CCC(C(=O)N2CCOCC2)CC1 [Compound I-617] showed an inhibition in vivo at 1 % [1] of 96%, a Ki (CB1 receptor [2]) of 295 nM and a Ki (CB2 receptor [3]) of 6.6 nM. It also gave an IC50 (CB1 receptor [4]) of 79 nM and an IC50 (CB2 receptor [5]) of 18 nM.

O=C(N[C@@H](C(=O)O)c1ccccc1)c1cc2c(n(CCCC(F)(F)F)c1=O)CCCCCC2 [Compound X-54] was tested, and the inhibition in vivo at 1 % [1] was 100%, the Ki (CB1 receptor [2]) was 93 nM and the Ki (CB2 receptor [3]) was < 2 nM. The IC50 (CB1 receptor [4]) was > 2000 nM and the IC50 (CB2 receptor [5]) was 3.7 nM.

CC(C)(NC(=O)c1cc2c(n(CC3CCCCC3)c1=O)CCCCCC2)C(=O)N1CCC(NS(=O)(=O)C(C)(C)C)CC1 [Compound I-048] gave an inhibition in vivo at 3 % [1] of 58%, a Ki (CB1 receptor [2]) of 118 nM and a Ki (CB2 receptor [3]) of 2.6 nM. For the same compound, the IC50 (CB1 receptor [4]) was 328 nM and the IC50 (CB2 receptor [5]) was 17 nM.

In the case of CC(C)(CNCCC(N)=O)NC(=O)c1cc2c(n(CC3CCCCC3)c1=O)CCCCCC2 [Compound I-588], the inhibition in vivo at 1 % [1] is reported as 81%, the Ki (CB1 receptor [2]) is reported as 41 nM and the Ki (CB2 receptor [3]) is reported as 10 nM. The IC50 (CB1 receptor [4]) was 72 nM and the IC50 (CB2 receptor [5]) was 5.7 nM.

In the case of CN(CCO)C(=O)C(C)(C)NC(=O)c1cc2c(n(CC3CCCCC3)c1=O)CCCCCC2 [Compound I-019, 1-cyclohexylmethyl-2-oxo-1,2,5,6,7,8,9,10-octahydro-cycloocta[b]pyridine-3-carboxylic acid {1-[(2-hydroxyethyl)-methyl-carbamoyl]-1-methyl-ethyl}-amide], the inhibition in vivo at 1 % [1] is reported as 74%, the Ki (CB1 receptor [2]; [6]) is reported as 2.9 nM and the Ki (CB2 receptor [3]) is reported as < 2 nM. The IC50 (CB1 receptor [4]) was 8.1 nM.

CCCCn1c2c(cc(C(=O)NC3(C(=O)OC)CCCCC3)c1=O)CCCCCC2 [Compound I-124] was tested, and the inhibition in vivo at 0.5 % [1] was 49%, the Ki (CB1 receptor [2]) was 3.6 nM and the Ki (CB2 receptor [3]) was < 2 nM. For the same compound, the IC50 (CB1 receptor [4]) was < 2 nM.

With CCc1c(C)cc(C(=O)N[C@H](C(=O)OC)C(C)(C)C)c(=O)n1CC1CCCCC1 [Compound I-252] the inhibition in vivo at 1.5 % [1] was 96%, the Ki (CB1 receptor [2]) was < 2 nM and the Ki (CB2 receptor [3]) was < 2 nM. The IC50 (CB1 receptor [4]) was < 2 nM.

CCc1c(C)cc(C(=O)N[C@H](C(=O)OC)C(C)C)c(=O)n1Cc1ccc(F)cc1 [Compound I-196] was tested, and the inhibition in vivo at 0.5 % [1] was 47%, the Ki (CB1 receptor [2]) was < 2 nM and the Ki (CB2 receptor [3]) was < 2 nM. For the same compound, the IC50 (CB1 receptor [4]) was < 2 nM.

COC(=O)[C@@H](NC(=O)c1cc2c(n(CCCC#N)c1=O)CCCCCC2)C(C)C [Compound I-266] was tested, and the inhibition in vivo at 2 % [1] was 64%, the Ki (CB1 receptor [2]) was 12 nM and the Ki (CB2 receptor [3]) was < 2 nM. It also gave an IC50 (CB1 receptor [4]) of 12 nM.

For CCOC(=O)C1CCCCC1NC(=O)c1cc2c(n(CCCNC(C)=O)c1=O)CCCCCC2 (stereo not shown) [II-031], the inhibition in vivo at 2 % [1] was 55%, the Ki (CB1 receptor [2]) was > 2000 nM and the Ki (CB2 receptor [3]) was 2.5 nM. For the same compound, the IC50 (CB2 receptor [5]) was 9.9 nM.

In the case of COC(=O)[C@@H](NC(=O)c1cc2c(n(Cc3ccc(F)cc3)c1=O)CCCCCC2)C(C)(C)C [Compound I-263], the inhibition in vivo at 1.5 % [1] is reported as 57%, the Ki (CB1 receptor [2]) is reported as < 2 nM and the Ki (CB2 receptor [3]) is reported as < 2 nM. For the same compound, the IC50 (CB1 receptor [4]) was < 2 nM.

With CCCCn1c(CCC)c(CC)cc(C(=O)N[C@H](C(=O)OC)C(C)(C)C)c1=O [Compound I-211] the inhibition in vivo at 1.5 % [1] was 70%, the Ki (CB1 receptor [2]) was 2.4 nM and the Ki (CB2 receptor [3]) was < 2 nM. For the same compound, the IC50 (CB1 receptor [4]) was < 2 nM.

O=C(NC(C(=O)O)c1ccco1)c1cc2c(n(CC3CCCCC3)c1=O)CCCCCC2 (stereo not shown) [Compound I-530] was tested, and the inhibition in vivo at 2 % [1] was 74%, the Ki (CB1 receptor [2]) was 7 nM and the Ki (CB2 receptor [3]) was < 2 nM. It also gave an IC50 (CB1 receptor [4]) of 305 nM.
